Results reported in US8410247B2, “Water-soluble phosphinothiol reagents” (Wisconsin Alumni Research Foundation, priority 2008, dated 2013).
≈ marks a conversion by molar mass, not a printed value. Like-named read-outs stand apart in the source and are kept apart here.

What was measured:
[1] = cited from earlier work; for pKa: ammonium pKa (Brown 1955)
[2] = pKa determination by 31P NMR spectroscopy; type: physicochemical; settings: control experiment, sodium phosphate buffer containing 20% v/v D2O
Procedure: The pKa values of phosphinothiols 33-35 were determined to quantitate the impact of Coulombic effects. […] Thus, the phosphorous pKa value of the cationic phosphinothiols appears to be below the limit of experimental detection. […] (Moore, S. J.; Marzilli, L. G. Inorg. Chem. 1998, 37, 5329-810 5335.) That value is much larger than the phosphorous pKa of phosphinothiols 33-35, consistent with the present hypothesis that through-space Coulombic effects lower the pKa of neighboring atoms, and in particular discourage protonation of the key iminophosphorane intermediate.
pKa Determination of phosphinothiols […] (10 mg) were each dissolved in sodium phosphate buffer containing 20% v/v D2O. 750 The solution was adjusted with a solution of either 6 N HCl or 2 N NaOH, and chemical shifts at each pH were determined by ^31P NMR spectroscopy. An external standard (D3PO4) was used to calibrate the chemical shifts. […] (Podlaha, J.; Podlahova, J. Collect. Czech. Chem. Commun. 1973, 38, 1730-1736.)

[3] = Solubility in water or aqueous sodium phosphate buffer; type: physicochemical; settings: 0.4 M sodium phosphate buffer (pH 7.8)
[4] = Stability in air / on storage; type: physicochemical; settings: chloride salt, solid
[5] = Gly+Gly coupling in DMF/D2O (6:1), reported previously; cited from earlier work

In the case of `O=C(O)CCP(CCC(=O)O)CCC(=O)O` [TCEP, tris(2-carboxyethyl)phosphine], the “pKa, reported value” ([1]; reported value (Podlaha 1973)) is listed as 7.66 and the pKa [2] is listed as 7.7.
In the case of `Fc1ccc(P(c2ccc(F)cc2)c2ccc(F)cc2)cc1` [(p-F—C6H4)3P], the “phosphorous pKa” value ([1]; in water (Moore 1998)) is given as 1.97.
In the case of `CCCCCCN` [CH3(CH2)5NH3^+], the pKa [1] is listed as 10.63.
In the case of `CN(C)CCc1ccc(P(CS)c2ccc(CCN(C)C)cc2)cc1` [phosphinothiol 17, bis(p-dimethylaminoethyl) phosphinomethanethiol], the solubility ([3]; aqueous buffer, chloride salt, read-out: solubility) is reported as greater than 1000 mM and the stability in air [4] is reported as “stable in air for several days”.
For `O=C(O)CNC(=O)c1ccc(P(CS)c2ccc(C(=O)NCC(=O)O)cc2)cc1` [phosphinothiol 9], the solubility [3] was roughly 50 mM (≈ 21.7 mg/mL).
In the case of `NCCCCCN` [^+H3N(CH2)5NH3^+], the pKa [1] is given as 9.74.
In the case of `CCP(c1ccccc1)c1ccccc1` [EtPPh2], the “phosphorous pKa” value ([1]; neutral mimic of HSCH2PPh2 (Moore 1998)) is given as 4.90.
In the case of `c1ccc(P(c2ccccc2)c2ccccc2)cc1` [Ph3P], the “phosphorous pKa” value ([1]; in water (Moore 1998)) is given as 2.73.
For `SCP(c1ccccc1)c1ccccc1` [phosphinothiol 1, (Diphenylphosphino)methanethiol], the “second-order rate constant k2” value [5] is given as 0.0077 M⁻¹ s⁻¹.
In the case of `CCCCCCCCCN` [CH3(CH2)8NH3^+], the pKa [1] is given as 10.65.
For `COc1ccc(P(c2ccc(OC)cc2)c2ccc(OC)cc2)cc1` [(p-OMe-C6H4)3P], the “phosphorous pKa” value ([1]; in water (Moore 1998)) is given as 4.57.
For `NCCCCCCCCN` [^+H3N(CH2)8NH3^+], the pKa [1] is given as 10.10.
